Experimental data published in patent US20050227941A1, “Sequestration of ass in the periphery in the absence of immunomodulating agent as a therapeutic approach for the treatment or prevention of beta-amyloid related diseases” (priority 2001, published 2005).

What was measured:
Format in all cases: in vivo
Aβ40 [1] = molecular target: T1, Aβ40 (Homo sapiens, UniProt P05067); assay: Brain Abeta40 load (70% formic acid extract, ELISA) in PS/APP mice after peripheral GM1 or gelsolin; settings: 1 week wash-out; for brain Abeta load, Abeta40: ip every two days for two weeks from 9 weeks of age, sacrificed at 12 weeks, FA-soluble brain fraction; for brain Abeta40 load compared with controls (vehicle): ip every two days for two weeks, % of vehicle
T1 construct: from tissue; host or cells: brain (70% formic acid extract) and plasma of PS/APP transgenic mice
T1 sequence (P05067 672-711 limits assumed): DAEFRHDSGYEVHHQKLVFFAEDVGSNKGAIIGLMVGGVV
Description: (§1) Transgenic mice that develop AD-related amyloidosis, (i.e., PS/APP mice; See, L. Holcomb et al., 1998, Nature Med., 4(1):97-100) were used for the studies described in this Example to assess how peripheral sequestration of Aβ affected brain Aβ levels. […] In addition, a second compound, gelsolin, which is too large to cross the blood/brain barrier (BBB), and is completely unrelated to GM1, but which is also known to bind Aβ with great avidity, was administered peripherally to confirm the universality of the mechanism.
(§2) PS/APP mice were injected every two days for two weeks either with GM1 (number of mice=6) (15 mg/kg, ip,), with gelsolin (number of mice=3) (60 μg/kg, ip), or with vehicle, (phosphate buffered saline), (number=7), into the periphery at 9 weeks of age, an age when amyloid pathology in the brain is not visible. The mice were left for 1 week without injections (the “wash-out” period) and were then sacrificed at 12 weeks of age, an age when amyloid deposition has been initiated and measurable levels of Aβ are present in the vehicle treated controls.
(§3) The levels of Aβ in the peripheral blood were tested at three time points during the drug administration period (i.e., after 1 week of injections; after two weeks of injections; and after the washout period). Data for the third time point only are shown. The levels of Aβ peptides (Aβ40 or Aβ42) in the brain and plasma were assessed by ELISA assay. All of the Aβ in the brain (including Aβ in plaques) was extracted in 70% formic acid (FA). The levels of Aβ peptides in GM1 or gelsolin treated mice were compared with those of vehicle treated controls.
(§4) This correlates with a statistically significant increase in peripheral Aβ40 and Aβ42 at the same time point. For gelsolin, there was also a significant decrease in Aβ42, which correlated with a statistically significant increase in peripheral Aβ, thus confirming that the general principle of Aβ sequestration in the periphery being linked to reduction of Aβ in the CNS holds true for very different types of compounds that have the unifying property of being able to bind Aβ in the blood.

Aβ42 [2] = molecular target: T2, Aβ42 (Homo sapiens, UniProt P05067); assay: Plasma Abeta42 load (ELISA) in PS/APP mice after peripheral GM1 or gelsolin; settings: ip every two days for two weeks, third time point (after wash-out), vehicle = 100 ± 7
T2 construct: from tissue; host or cells: brain (70% formic acid extract) and plasma of PS/APP transgenic mice
T2 sequence (P05067 672-713 limits assumed): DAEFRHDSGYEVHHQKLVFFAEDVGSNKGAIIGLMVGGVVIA
Description: as §1, §2
(§5) The levels of Aβ in the peripheral blood were tested at three time points during the drug administration period (i.e., after 1 week of injections; after two weeks of injections; and after the washout period). […] The levels of Aβ peptides (Aβ40 or Aβ42) in the brain and plasma were assessed by ELISA assay. […]

Aβ40 [3] = molecular target: T1, Aβ40; assay: Plasma Abeta40 load (ELISA) in PS/APP mice after peripheral GM1 or gelsolin; settings: ip every two days for two weeks, third time point (after wash-out), vehicle = 100 ± 21
Description: as §1, §2, §5

Aβ42 [4] = molecular target: T2, Aβ42; assay: Brain Abeta42 load (70% formic acid extract, ELISA) in PS/APP mice after peripheral GM1 or gelsolin; settings: 1 week wash-out; for brain Abeta load, Abeta42: ip every two days for two weeks from 9 weeks of age, sacrificed at 12 weeks, FA-soluble brain fraction; for brain Abeta42 load compared with controls (vehicle): ip every two days for two weeks, % of vehicle
Description: as §1, §2, §3, §4

Aβ = assay: GM1 introduced directly into the brain of transgenic mice, Aβ levels
Chain of Aβ (P05067 672-711 limits assumed): as the sequence (P05067 672-711 limits assumed) above
Source text: Neither GM1 nor gelsolin is known to cross into the brain from the periphery to any degree. […] This is the first time that such a result has been shown for a peripherally administered compound that is not an antibody. As such, the invention affords a significant advantage to the art by describing and promoting Aβ-binding compounds that require neither penetration of the brain nor the evocation of an immune response, which are potentially harmful and ineffective ways to modulate the risk of AD in human patients.

Aβ40 [5] = molecular target: T1, Aβ40; assay: Brain Aβ40 (70% formic acid extract, ELISA) after one week of daily CG injection in PS/APP mice; settings: 20 mg/kg ip every day for one week, sacrificed at 12 weeks, vehicle 926 ± 26
Description: (§6) Following a oneweek wash out period, the effect in brain AD level after continuous injection was examined. PS/APP mice were injected every day for one week into the periphery, with either CG (number of mice=3) (20 mg/kg, ip,) or vehicle (phosphate buffered saline) (number of mice=2), at 11 weeks of age, an age when amyloid pathology in the brain is not visible. The mice were sacrificed at 12 weeks of age, an age when amyloid deposition has been initiated and measurable levels of Aβ are present in the vehicle treated controls.
(§7) The levels of Aβ in the peripheral blood were tested at the end of the administration period. The levels of Aβ peptides (e.g., Aβ40 or Aβ42) in the brain and plasma were assessed by ELISA assay. All of the Aβ in the brain (including Aβ in plaques) was extracted in 70% formic acid (FA). The levels of Aβ peptides in CG treated mice were compared with those of vehicle treated controls. […] This correlates with a statistically significant increase in peripheral Aβ40 and Aβ42 at the same time point.

Aβ42 [6] = molecular target: T2, Aβ42; assay: Brain Aβ42 (70% formic acid extract, ELISA) after one week of daily CG injection in PS/APP mice; settings: 20 mg/kg ip every day for one week, sacrificed at 12 weeks, vehicle 1209 ± 292, not statistically significant
Description: as §6, §7

Aβ42 [7] = molecular target: T2, Aβ42; assay: Plasma Aβ42 level over time after a single injection of CG in PS/APP mice (ELISA); settings: single injection 20 mg/kg
Source text: In this Example, as in Example 1, transgenic mice that develop AD-related amyloidosis, (i.e., PS/APP mice; See, L. Holcomb et al., 1998, Nature Med., 4(1):97-100) were used to assess the Aβ-binding compound chrysamine G (CG) in the peripheral sequestration of Aβ according to this invention, and to determine how the peripheral sequestration of Aβ by this compound affected brain Aβ levels. CG is known to bind Aβ strongly, and is less brain permeable than GM1.
PS/APP mice at 10 weeks of age were injected once either with CG (number of mice=3, dosage: 20 mg/kg) or vehicle (phosphate buffered saline, number of mice=2) into the blood stream. […] […] The levels of Aβ peptides (Aβ40 or Aβ42) in the plasma were assessed by ELISA immunoassay. The levels of Aβ peptides in the periphery, i.e., plasma, of CG treated mice were compared with plasma Aβ levels in pretreatment mice at various time points.
Changes in plasma load of Aβ42 after injection with CG were compared to the plasma Aβ level at pretreatment time points. As can be observed, there was a significant increase in plasma Aβ levels after injection of CG.

Aβ42 [8] = molecular target: T2, Aβ42; assay: Plasma Aβ42 level after one week of daily CG injection in PS/APP mice (ELISA); settings: 20 mg/kg ip every day for one week from 11 weeks of age, vehicle = 100 ± 9
Description: as §6, §7

Compound | brain Abeta load, Abeta40 (Aβ40 [1]) | brain Abeta40 load compared with controls (vehicle) (Aβ40 [1]) | plasma Abeta load, Abeta42 (Aβ42 [2]) | plasma Abeta load, Abeta40 (Aβ40 [3]) | brain Abeta load, Abeta42 (Aβ42 [4]) | brain Abeta42 load compared with controls (vehicle) (Aβ42 [4]) | change in Aβ levels (Aβ) | brain Aβ40 (Aβ40 [5]) | brain Aβ42 (Aβ42 [6]) | plasma Aβ42 level (Aβ42 [7]; 2.5 hours after injection) | plasma Aβ42 level (Aβ42 [7]; 5 hours after injection) | plasma Aβ42 level (Aβ42 [7]; 7.5 hours after injection) | plasma Aβ42 level (Aβ42 [7]; 24 hours after injection) | plasma Aβ42 level (Aβ42 [7]; 48 hours after injection) | plasma Aβ42 level (Aβ42 [8])
GM1 | 2147 ± 226 fmole/mg protein | 59% | 124 ± 11 fmole/ml plasma | 177 ± 29 fmole/ml plasma | 2990 ± 410 fmole/mg protein | 73% | no change in Aβ levels was observed |  |  |  |  |  |  |  | 
O=C([O-])c1cc(N=Nc2ccc(-c3ccc(N=Nc4ccc(O)c(C(=O)[O-])c4)cc3)cc2)ccc1O.[Na+].[Na+] [CG, 5,5′-[(1,1′ biphenyl)-4,4′-diylbis(azo)]bis [2-hydroxybenzoic acid]disodium salt] |  |  |  |  |  |  |  | 541 ± 50 fmol/mL | 540 ± 271 fmol/mL | 110 ± 8 (p = 0.232) % of pre-treatment time point | 125 ± 8 (p = 0.049) % of pre-treatment time point | 125 ± 7 (p = 0.034) % of pre-treatment time point | 112 ± 13 (p = 0.341) % of pre-treatment time point | 111 ± 10 (p = 0.256) % of pre-treatment time point | 331 ± 10 % of control
gelsolin | 3473 ± 673 fmole/mg protein | 96% | 153 ± 35 fmole/ml plasma | 218 ± 87 fmole/ml plasma | 2473 ± 167 fmole/mg protein | 60% |  |  |  |  |  |  |  |  | 
